Measurements reported in patent US4431815A, “1-[3-(2,4-Dichlorophenyl)propyl]imidazole and salts thereof” (Burroughs Wellcome Co., priority 1983, dated 1984).

System: enzymic conversion of the endoperoxides (PGG2 and PGH2) to thromboxane A2 by platelet microsomes
Assay: not given
Settings: Moncada et al., Prostaglandins 1977; cited from earlier work

Row | SMILES | inhibition of the enzymic conversion of endoperoxides to thromboxane A2
1 | Cn1ccnc1 [1-methylimidazole] | some degree of inhibition
2 | c1c[nH]cn1 [Imidazole] | some degree of inhibition

System: PGE, PGF and PGD
Assay: Selectivity: amount of PGE, PGF and PGD produced (anti-aggregating prostaglandins), horse platelets
Type: biochemical
Settings: Table A; horse platelet homogenate
Experimental: Horse platelets were prepared from whole horse blood by differential centrifugation. Approximately 10^6 platelets were homogenised in 1 ml 100 mM Tris buffer pH 7.4. […] To each tube was added 20 nM of arachidonic acid containing 10^6 DPM of labelled arachidonic acid and the tubes incubated for 3 minutes at 37° C. in a shaking water bath. After incubation the radioactive products were extracted from the acidified aqueous phase with ethyl acetate and after concentration resolved by thin layer chromatography on silica gel with chloroform/methanol/acetic acid/water (90:8:1:0.8) as a developing solvent. The amount of thromboxane produced was measured by scraping off the radioactive zone corresponding to thromboxane B2 and estimating the radioactivity in a liquid scintillation counter.
The greater the selectivity, the more of the anti-aggregating prostaglandins are produced.
The ED50 and Selectivity results are shown in Table A in which 0 indicates no selectivity; + low selectivity: ++ medium selectivity; +++ high selectivity, and ++++ exceptionally high selectivity.

Row | SMILES | SELECTIVITY
3 | Cc1cc(C)c(Cn2ccnc2)c(C)c1 [1-(2,4,6-Trimethylbenzyl)imidazole, 1-(2,4,6-trimethylbenzyl)imidazole] | ++
4 | Cc1ccc(Cn2ccnc2)cc1C [1-(3,4-Dimethylbenzyl)imidazole] | ++
5 | Clc1ccc(C=CCn2ccnc2)c(Cl)c1 [1-[3-(2,4-Dichlorophenyl)prop-2-enyl]imidazole] | +
6 | Clc1ccc(CCCn2ccnc2)c(Cl)c1 [1-[3-(2,4-Dichlorophenyl)propyl]imidazole] | ++
7 | Clc1cccc(Cl)c1C=CCn1ccnc1 [1-[3-(2,6-Dichlorophenyl)prop-2-enyl]imidazole] | +

Same assay, conditions: Table B; horse platelet homogenate

Row | SMILES | SELECTIVITY
8 | Cc1cccc(-n2ccnc2)c1C [1-(2,3-dimethylphenyl)imidazole] | ++
9 | Clc1ccccc1Cn1ccnc1 [1-(2-chlorobenzyl)imidazole] | ++
10 | c1ccc(CCn2ccnc2)cc1 [1-(2-phenylethyl)imidazole, 1-(2-Phenylethyl)imidazole] | +
11 | Nc1cccc(Cn2ccnc2)c1 [1-(3-aminobenzyl)imidazole, 1-(3-Aminobenzyl)imidazole] | ++
12 | Brc1cccc(Cn2ccnc2)c1 [1-(3-bromobenzyl)imidazole, 1-(3-Bromobenzyl)imidazole] | +++
13 | c1ccc(CCCn2ccnc2)cc1 [1-(3-phenylpropyl)imidazole, 1-(3-Phenylpropyl)imidazole] | +
14 | CC(C)c1ccc(Cn2ccnc2)cc1 [1-(4-i-propylbenzyl)imidazole, 1-(4-i-Propylbenzyl)imidazole] | 0
15 | Cc1ccc(Cn2ccnc2)cc1 [1-(4-methylbenzyl)imidazole, 1-(4-Methylbenzyl)imidazole] | +
16 | Clc1ccc(CCCn2ccnc2)c(Cl)c1 [1-[3-(2,4-Dichlorophenyl)propyl]imidazole] | ++
17 | c1ccc(Cn2ccnc2)cc1 [1-benzylimidazole, 1-Benzylimidazole] | +++

System: platelet clumps
Assay: Disaggregation of platelet clumps
Settings: not given

Row | SMILES | disaggregating platelet clumps
18 | Cc1cc(C)c(Cn2ccnc2)c(C)c1 [1-(2,4,6-Trimethylbenzyl)imidazole, 1-(2,4,6-trimethylbenzyl)imidazole] | capable of disaggregating platelet clumps
19 | Clc1ccc(Cn2ccnc2)c(Cl)c1 [1-(2,4-dichlorobenzyl)imidazole, 1-(2,4-Dichlorobenzyl)imidazole] | capable of disaggregating platelet clumps
20 | Clc1ccc(CCCn2ccnc2)c(Cl)c1 [1-[3-(2,4-Dichlorophenyl)propyl]imidazole] | capable of disaggregating platelet clumps
21 | c1ccc(Cn2ccnc2)cc1 [1-benzylimidazole, 1-Benzylimidazole] | capable of disaggregating platelet clumps

Molecular target: T1, TXA2 synthetase (Equus caballus, UniProt A0A9L0T8T9)
T1 construct: labelled arachidonic acid substrate, thromboxane B2 measured by TLC
T1 sequence (A0A9L0T8T9 2-534): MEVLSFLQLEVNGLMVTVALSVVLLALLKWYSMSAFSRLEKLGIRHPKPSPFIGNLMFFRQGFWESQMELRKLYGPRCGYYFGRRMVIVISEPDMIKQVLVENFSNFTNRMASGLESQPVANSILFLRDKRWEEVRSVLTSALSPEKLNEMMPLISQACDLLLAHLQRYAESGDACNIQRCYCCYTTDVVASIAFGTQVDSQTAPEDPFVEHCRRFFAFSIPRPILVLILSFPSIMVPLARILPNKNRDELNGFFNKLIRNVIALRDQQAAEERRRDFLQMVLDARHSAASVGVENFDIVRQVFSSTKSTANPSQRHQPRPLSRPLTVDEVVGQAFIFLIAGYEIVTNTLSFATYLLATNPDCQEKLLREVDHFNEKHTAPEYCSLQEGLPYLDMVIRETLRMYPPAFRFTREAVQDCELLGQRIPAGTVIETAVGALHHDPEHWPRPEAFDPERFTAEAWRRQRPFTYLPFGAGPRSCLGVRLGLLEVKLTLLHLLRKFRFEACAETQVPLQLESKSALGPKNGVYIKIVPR
Assay: Inhibition of thromboxane (TXA2) synthetase in homogenised horse platelets, labelled arachidonic acid, thromboxane B2 measured by TLC
Type: biochemical
Settings: Table A; horse platelet homogenate, pH 7.4; read-out: ED50 (concentration of active compound to reduce the enzyme activity by 50%) (converted)
Experimental: Horse platelets were prepared from whole horse blood by differential centrifugation. Approximately 10^6 platelets were homogenised in 1 ml 100 mM Tris buffer pH 7.4. Various concentrations of active compound were added and the reaction sets incubated for 5 minutes at ambient temperature. To each tube was added 20 nM of arachidonic acid containing 10^6 DPM of labelled arachidonic acid and the tubes incubated for 3 minutes at 37° C. in a shaking water bath. After incubation the radioactive products were extracted from the acidified aqueous phase with ethyl acetate and after concentration resolved by thin layer chromatography on silica gel with chloroform/methanol/acetic acid/water (90:8:1:0.8) as a developing solvent. The amount of thromboxane produced was measured by scraping off the radioactive zone corresponding to thromboxane B2 and estimating the radioactivity in a liquid scintillation counter.
The concentration of active compound to reduce the enzyme activity by 50% (ED50) was established.
By the method of Biological results Example 7 above the ED50 and selectivity values were obtained for the compounds set out in Table B.

Row | SMILES | IC50 [µM]
22 | Clc1ccc(CCCn2ccnc2)c(Cl)c1 [1-[3-(2,4-Dichlorophenyl)propyl]imidazole] | 1.96

Same assay, conditions: Table B; horse platelet homogenate, pH 7.4; read-out: ED50 (concentration of active compound to reduce the enzyme activity by 50%) (converted)

Row | SMILES | IC50 [µM]
23 | Cc1cccc(-n2ccnc2)c1C [1-(2,3-dimethylphenyl)imidazole] | ~17.4
24 | Clc1ccc(Cn2ccnc2)c(Cl)c1 [1-(2,4-dichlorobenzyl)imidazole, 1-(2,4-Dichlorobenzyl)imidazole] | 8.81 to 35.2
25 | Clc1ccccc1Cn1ccnc1 [1-(2-chlorobenzyl)imidazole] | 2.6
26 | c1ccc(CCn2ccnc2)cc1 [1-(2-phenylethyl)imidazole, 1-(2-Phenylethyl)imidazole] | 116
27 | CC(Cn1ccnc1)c1ccccc1 (stereo not drawn) [1-(2-phenylpropyl)imidazole, 1-(2-Phenylpropyl)imidazole] | < 26.8
28 | Nc1cccc(Cn2ccnc2)c1 [1-(3-aminobenzyl)imidazole, 1-(3-Aminobenzyl)imidazole] | ~57.7
29 | Brc1cccc(Cn2ccnc2)c1 [1-(3-bromobenzyl)imidazole, 1-(3-Bromobenzyl)imidazole] | 61.2
30 | O=[N+]([O-])c1cccc(Cn2ccnc2)c1 [1-(3-nitrobenzyl)imidazole, 1-(3-Nitrobenzyl)imidazole] | 271
31 | C(=Cc1ccccc1)Cn1ccnc1 [1-(3-phenylprop-2-enyl)imidazole, 1-(3-Phenylprop-2-enyl)imidazole] | 92.3
32 | c1ccc(CCCn2ccnc2)cc1 [1-(3-phenylpropyl)imidazole, 1-(3-Phenylpropyl)imidazole] | 134
33 | Brc1ccc(Cn2ccnc2)cc1 [1-(4-bromobenzyl)imidazole, 1-(4-Bromobenzyl)imidazole] | 19.4
34 | Fc1ccc(Cn2ccnc2)cc1 [1-(4-fluorobenzyl)imidazole, 1-(4-Fluorobenzyl)imidazole] | 159
35 | CC(C)c1ccc(Cn2ccnc2)cc1 [1-(4-i-propylbenzyl)imidazole, 1-(4-i-Propylbenzyl)imidazole] | 0.499
36 | Cc1ccc(Cn2ccnc2)cc1 [1-(4-methylbenzyl)imidazole, 1-(4-Methylbenzyl)imidazole] | 174
37 | Clc1ccc(CCCn2ccnc2)c(Cl)c1 [1-[3-(2,4-Dichlorophenyl)propyl]imidazole] | 2.35

Same assay, conditions: read-out: ED50 (concentration of active compound to reduce the enzyme activity by 50%); Table B; horse platelet homogenate, pH 7.4

Row | SMILES | IC50 [µM]
38 | c1ccc(Cn2ccnc2)cc1 [1-benzylimidazole, 1-Benzylimidazole] | 31.6

System: platelet aggregation
Assay: Inhibition of platelet aggregation in vivo
Settings: not given

Row | SMILES | inhibiting platelet aggregation in vivo
39 | Cc1cc(C)c(Cn2ccnc2)c(C)c1 [1-(2,4,6-Trimethylbenzyl)imidazole, 1-(2,4,6-trimethylbenzyl)imidazole] | capable of inhibiting platelet aggregation in vivo
40 | Clc1ccc(Cn2ccnc2)c(Cl)c1 [1-(2,4-dichlorobenzyl)imidazole, 1-(2,4-Dichlorobenzyl)imidazole] | capable of inhibiting platelet aggregation in vivo
41 | Clc1ccc(CCCn2ccnc2)c(Cl)c1 [1-[3-(2,4-Dichlorophenyl)propyl]imidazole] | capable of inhibiting platelet aggregation in vivo
42 | c1ccc(Cn2ccnc2)cc1 [1-benzylimidazole, 1-Benzylimidazole] | capable of inhibiting platelet aggregation in vivo
